Laboratory results taken from patent publication US10689376B2, “Substituted-3H-imidazo [4,5-c] pyridine and 1H-pyrrolo[2,3-c]pyridine series of novel ectonucleotide pyrophosphatase/phosphodiesterase-1 (ENPP1) and stimulator for interferon genes (STING) modulators as cancer immunotherapeutics” (Stingray Therapeutics, Inc., priority 2017, dated 2020).
pIC50: −log10 of the molar value.

Key:
[1] = molecular target: T1, Recombinant Human ENPP-1 Protein (Homo sapiens (Human), UniProt P22413); assay: ENPP1 Inhibition Assay; type: biochemical; conditions: for inhibiting the activity of ENPP1 (FIG. 1): result in words; for pIC50: substrate thymidine 5′-monophosphate p-nitrophenol ester, absorbance at 405 nm
T1 sequence (P22413 whole entry): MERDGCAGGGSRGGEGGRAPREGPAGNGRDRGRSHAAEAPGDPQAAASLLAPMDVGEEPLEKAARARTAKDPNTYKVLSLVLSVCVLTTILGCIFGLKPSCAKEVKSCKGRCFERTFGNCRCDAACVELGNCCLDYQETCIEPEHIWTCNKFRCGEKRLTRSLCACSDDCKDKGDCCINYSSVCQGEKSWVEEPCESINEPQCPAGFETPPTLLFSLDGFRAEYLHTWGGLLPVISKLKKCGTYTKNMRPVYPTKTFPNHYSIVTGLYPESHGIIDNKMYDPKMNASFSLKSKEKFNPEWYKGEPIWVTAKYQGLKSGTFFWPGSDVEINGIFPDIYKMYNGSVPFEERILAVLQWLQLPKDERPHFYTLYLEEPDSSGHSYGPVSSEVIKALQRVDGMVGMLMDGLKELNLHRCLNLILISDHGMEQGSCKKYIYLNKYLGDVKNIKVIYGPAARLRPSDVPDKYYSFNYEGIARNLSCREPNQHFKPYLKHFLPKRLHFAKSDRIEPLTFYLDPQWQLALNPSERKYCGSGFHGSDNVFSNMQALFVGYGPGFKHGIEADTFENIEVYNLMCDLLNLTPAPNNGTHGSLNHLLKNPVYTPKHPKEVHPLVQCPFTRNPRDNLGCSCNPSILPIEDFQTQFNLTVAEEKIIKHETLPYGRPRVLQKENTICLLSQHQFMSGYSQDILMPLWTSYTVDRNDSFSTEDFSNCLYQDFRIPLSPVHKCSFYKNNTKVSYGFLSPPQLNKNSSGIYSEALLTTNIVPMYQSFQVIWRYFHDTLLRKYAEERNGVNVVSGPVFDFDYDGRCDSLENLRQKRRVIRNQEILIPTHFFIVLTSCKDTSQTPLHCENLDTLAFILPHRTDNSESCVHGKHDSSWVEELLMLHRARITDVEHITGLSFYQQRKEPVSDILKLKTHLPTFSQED
Method: 1. ENPP1 Inhibition Assay
Materials: • Assay Buffer: 1 mM CaCl2, 0.2 mM ZnCl2, 50 mM Tris, pH 9.0 • Substrate: 8 mM Thymidine 5′-monophosphate p-nitrophenol ester sodium salt (Sigma Cat # T4510) • Enzyme: 5 ng/μL Recombinant Human ENPP-1 Protein (R&D Cat #6136-EN-010) DMSO • 96-well clear assay plates
(§1) An eight point serial dilution of drugs was prepared in 10× in assay buffer with the final assay concentrations starting at 10 μM, 3 μM, 1 μM, 0.3 μM . . . 0 μM. A dilution of DMSO was included as a control. The assay plate was set up as follows with each well in duplicate: 81 μL assay buffer+10 μL ENPP1 inhibitor or DMSO+5 μL Substrate+4 μL Enzyme. Both the enzyme and substrate were added to opposite sides of the well to ensure that there was no interaction until all wells had both components. The plate was then centrifuged gently for 10 seconds, followed by an incubation at 37° C. for 45 minutes. The reaction was quantified by measuring absorbance at 405 nm using the Envision.
(§2) IC50 values are determined using GraphPad Prism 5 software. The data were entered as an X-Y plot into the software as percent inhibition for each concentration of the drug. The concentration values of the drug were log transformed and the nonlinear regression was carried out using the “sigmoidal dose-response (variable slope)” option within the GraphPad software to model the data and calculate IC50 values. The IC50 values reported are the concentration of drug at which 50% inhibition was reached.

[2] = molecular target: Recombinant Human ENPP-2/Autotaxin Protein (Homo sapiens (Human), UniProt Q13822); assay: ENPP2 Inhibition Assay; type: biochemical; conditions: result in words
Method: 2. ENPP2 Inhibition Assay
Assay Buffer: 10 mM CaCl2, 5 mM MgCl2, 50 mM Tris, 0.02% Brij-35, pH 8.5
Substrate: 2 mM Bis(p-Nitrophenyl) Phosphate Sodium Salt (Sigma Cat # N3002)
Enzyme: 0.2 ng/μL Recombinant Human ENPP-2/Autotaxin Protein (R&D Cat #5255-EN)
96-well clear assay plates
as §1, with “duplicate: 15” for “duplicate: 81”, “buffer+10 μL,” for “buffer+10 μL”, “or DMSO+50” for “or DMSO+5”, “μL Substrate+25” for “μL Substrate+4”
as §2

[3] = molecular target: T1, Recombinant Human ENPP-1 Protein; assay: ENPP1 Thermal Shift Assay; type: binding
Method: 3. ENPP1 Thermal Shift Assay Materials: Recombinant Human ENPP-1 Protein (R&D Cat #6136-EN-010) Assay Buffer (1 mM CaCl2, 0.2 mM ZnCl2, 50 mM Tris, pH 9.0) 5000× SYPRO Orange (ThermoFisher cat # S6651) 384-well PCR Plates Methods: Each drug was prepared as a 10× solution in the assay buffer and SYPRO Orange was diluted to 10× concentration in water. Wells were set up in duplicate in a 384-well PCR plate as follows: 14 μL assay buffer, 2 μL ENPP1 Inhibitor or DMSO, 2 μL (0.5 μg) ENPP1 protein. Each well was mixed and incubated on ice for 5 minutes. Post incubation, 2 μL of SYPRO Orange was mixed into each well and followed by a gentle centrifugation. The protein melt reaction was run using ViiA7 software with temperatures beginning at 25° C. and increasing by 0.05° C./s to the maximum temperature of 99° C.

Saos-2 Cells = assay: ENPP1 Mineralization Assay; type: cell-based; design: key to ENPP1 Mineral assay (50% inhibition at 50 μM): +: active at 50 μM concentration; NA: Not Active; conditions: for ENPP1 Mineral assay (50% inhibition at 50 μM): Alizarin Red; for inhibiting ENPP1 ability to produce mineralized nodules (FIG. 4): result in words
Method: 4. ENPP1 Mineralization Assay
Saos-2 Cells (ATCC CAT # HTB-85)
24-well Tissue Culture Plate
Ascorbic Acid, 5 mg/mL (100×)
β-Glycerophosphate, 1M (100×)
Phosphate Buffered Saline
Alizarin Red, 40 mM pH 4.2
Dye Extraction Reagent, 10% Methanol+10% Acetic Acid
Saos-2 cells were plated at a density of 1.5×10^6 cells/well and allowed to grow to 100% confluency over the following 1-2 days. Once completely confluent, the media was replaced with fresh media supplemented with 1× ascorbic acid, 1× β-glycerophosphate, and varying concentrations of ENPP1 inhibitor (if applicable). The addition of the mineralization components was considered Day 1, On Day 3, the media was gently aspirated with no wash followed by the addition of fresh media, mineralization components, and ENPP1 inhibitor (if applicable). On day 5, the media was gently aspirated and the cells were washed twice with PBS. The cells were then fixed with ice cold 70% ethanol for 1 hour at 4° C. Cells were washed once with PBS and stained with Alizarin Red for 30 minutes at room temperature with gentle rotation. Stained cells were washed three times with water for 10 minutes at room temperature with gentle rotation. After imaging cells, dye extraction reagent was added to each well and incubated for 30 minutes at room temperature. Alizarin red was quantified by measuring absorbance at a wavelength of 405 nm using the Envision.

SMILES | pIC50 [1] | ENPP1 Mineral assay (50% inhibition at 50 μM) (Saos-2 Cells) | also measured
COc1cc(NC(=O)CSc2nc3cc(Cl)ncc3[nH]2)ccc1O [Compound 22, 2-((6-chloro-3H-imidazo[4,5-c]pyridin-2-yl)thio)-N-(4-hydroxy-3-methoxyphenyl)acetamide] | 5.94 | + | 
COc1ccc(NC(=O)CSc2nc3cnc(C(F)(F)F)cc3[nH]2)cc1F [Compound 38, N-(3-fluoro-4-methoxyphenyl)-2-((6-(trifluoromethyl)-1H-imidazo[4,5-c]pyridin-2-yl)thio)acetamide] | 6.31 | + | 
O=C(CSc1nc2cnc(C(F)(F)F)cc2[nH]1)Nc1ccc(F)c(O)c1 [Compound 45, N-(4-fluoro-3-hydroxyphenyl)-2-((6-(trifluoromethyl)-1H-imidazo[4,5-c]pyridin-2-yl)thio)acetamide] | 6.19 | + | 
COc1ccc(NC(=O)CSc2nc3cc(Cl)ncc3[nH]2)cc1[N+](=O)[O-] [Compound 83, 2-((6-Chloro-3H-imidazo[4,5-c]pyridin-2-yl)thio)-N-(4-methoxy-3-nitrophenyl)acetamide] | 5.34 |  | 
COc1cnc(NC(=O)CSc2nc3cc(Cl)ncc3[nH]2)cc1OC [Compound 85, 2-((6-chloro-1H-imidazo[4,5-c]pyridin-2-yl)thio)-N-(4,5-dimethoxypyridin-2-yl)acetamide] | 6.58 |  | 
COc1ccc(NC(=O)CSc2nc3cc(Cl)ncc3[nH]2)nc1OC [Compound 87, 2-((6-chloro-1H-imidazo[4,5-c]pyridin-2-yl)thio)-N-(5,6-dimethoxypyridin-2-yl)acetamide] | 5.70 |  | 
COc1ccc(NC(=O)CSc2nc3cc(Cl)ncc3[nH]2)cc1OCC(F)(F)F [Compound 89] | 4.95 |  | 
COc1ccc(NC(=O)CSc2nc3c(C)c(C#N)ncc3[nH]2)cc1F [Compound 93, 2-((6-Cyano-7-methyl-3H-imidazo[4,5-c]pyridin-2-yl)thio)-N-(3-fluoro-4-methoxyphenyl)acetamide] | 6.65 |  | 
COc1nc(NC(=O)CSc2nc3c(C)c(C#N)ncc3[nH]2)ccc1O [Compound 96, 2-((6-cyano-7-methyl-3H-imidazo[4,5-c]pyridin-2-yl)thio)-N-(5-hydroxy-6-methoxypyridin-2-yl)acetamide] | 5.69 |  | 

Stronger by pIC50 [1], values ahead:

pIC50 [1] | SMILES | ENPP1 Mineral assay (50% inhibition at 50 μM) (Saos-2 Cells) | also measured
7.07 | COc1ccc(NC(=O)CSc2nc3cc(Cl)ncc3[nH]2)cc1O [Compound 21, 2-((6-chloro-3H-imidazo[4,5-c]pyridin-2-yl)thio)-N-(3-hydroxy-4-methoxyphenyl)acetamide] | + | inhibiting the activity of ENPP1 (FIG. 1) [1]: effective in inhibiting the activity of ENPP1; inhibiting the activity of ENPP2 (FIGS. 2A and 2B) [2]: ineffective in inhibiting the activity of ENPP2; selectivity ENPP1 versus ENPP2 [2]: selective at inhibiting ENPP1 but not ENPP2; Tm (midpoint of the protein unfolding transition) of ENPP1 in the presence of compound ([3]; Tm of ENPP1 alone 64.2° C.): 67.84 °C; stability of recombinant ENPP1 protein (FIG. 3) ([3]; result in words): effective in increasing the stability of recombinant ENPP1 protein; inhibiting ENPP1 ability to produce mineralized nodules (FIG. 4) (Saos-2 Cells): effective in inhibiting ENPP1 ability to produce mineralized nodules
6.74 | COc1ccc(NC(=O)CSc2nc3cnc(C(F)(F)F)cc3[nH]2)cc1O [Compound 31, N-(3-hydroxy-4-methoxyphenyl)-2-((6-(trifluoromethyl)-1H-imidazo[4,5-c]pyridin-2-yl)thio)acetamide] | + | 
6.77 | O=C(CSc1nc2cnc(Cl)cc2[nH]1)Nc1ccc(F)c(O)c1 [Compound 37, 2-((6-chloro-1H-imidazo[4,5-c]pyridin-2-yl)thio)-N-(4-fluoro-3-hydroxyphenyl)acetamide] | + | 
6.94 | COc1ccc(NC(=O)CSc2nc3cc(C#N)ncc3[nH]2)cc1OC [Compound 68, 2-((6-Cyano-3H-imidazo[4,5-c]pyridin-2-yl)thio)-N-(3,4-dimethoxyphenyl)acetamide] | + | inhibiting the activity of ENPP1 (FIG. 1) [1]: effective in inhibiting the activity of ENPP1; inhibiting ENPP1 ability to produce mineralized nodules (FIG. 4) (Saos-2 Cells): effective in inhibiting ENPP1 ability to produce mineralized nodules
7.10 | COc1ccc(NC(=O)CSc2nc3c(C)c(C#N)ncc3[nH]2)cc1O [Compound 78, 2-((6-Cyano-7-methyl-3H-imidazo[4,5-c]pyridin-2-yl)thio)-N-(3-hydroxy-4-methoxyphenyl)acetamide] | + | inhibiting the activity of ENPP1 (FIG. 1) [1]: effective in inhibiting the activity of ENPP1; inhibiting the activity of ENPP2 (FIGS. 2A and 2B) [2]: ineffective in inhibiting the activity of ENPP2; selectivity ENPP1 versus ENPP2 [2]: selective at inhibiting ENPP1 but not ENPP2
